Data reported in PubChem BioAssay AID2060513 (Molecular Pharmacology Branch, DTP, NCI, 2025).
Several values for one entry are separate records, joined by “and”; a condition that tells them apart may be missing. Equal values may be shown once.

System: 299254-011-R-J1-PDC complex spheroids viability
Experiment: Anticancer human tumor 299254-011-R-J1-PDC patient-derived melanoma cell line growth inhibition [GQUAD]
Conditions: for viability, T/C: stronger effect = lower value; active = viability on the fitted dose curve at most 10% of control; inactive = the rest
Text: DNA G-quadruplex Stabilizer Agents in Combinations in Complex Spheroids
A high-throughput screen of multi-cell type tumor spheroids was designed to identify active combinations of DNA G-quadruplex stabilizer agents and targeted small molecules. Complex spheroids include a stromal component modeled by human endothelial cells (HUVEC) and fibroblasts modeled by human mesenchymal stem cells (MSCs). The concentration ranges selected for each drug and investigational agent were based upon clinically achievable concentrations if the clinical Cmax of the agent was known.
Compounds. The drugs and investigational agents: pidnarulex (CX-5461; NSC782164), APTO-253 (NSC789042), BRACO-19 (NSC847499), peposertib (NSC802822), ceralasertib (NSC780249), elimusertib (NSC800525), camonsertib (NSC841442), AZD-1390 (NSC803789), olaparib (NSC753686), talazoparib (NSC767125), ART-558 (NSC835418), sotorasib (NSC818433), MRTX-1133 (NSC836407), SN-38 (NSC673596), topotecan (NSC609699), etoposide (NSC141540), doxorubicin (NSC123127), gemcitabine (NSC613327), 5-fluorouracil (NSC19893), paclitaxel (NSC125973), vemurafenib (NSC761431), panobinostat (NSC761190), R-306465 (JNJ-16241199; NSC773264), adavosertib (NSC754352), TP-3654 (NSC805149), carboplatin (NSC241240), KSQ-4279 (NSC840948), and staurosporine (NSC755774) were obtained from the National Cancer Institute (NCI) Developmental Therapeutics Program Chemical Repository (34). The FDA-approved anticancer drug set is available from the NCI Developmental Therapeutics Program. […] The stock solutions were prepared in dimethyl sulfoxide (DMSO, Sigma-Aldrich, St. Louis, MO, cat. D2650) at 800-fold the tested concentration and stored at -70 degrees C prior to their use. All drugs and investigational agents were tested over a range starting from a high concentration at or near the clinical Cmax and decreasing in half-log increments. If the clinical Cmax for an agent had not been determined, the highest concentration tested was 10 microM.
2.3 Cell Culture. All cells were maintained in an incubator at 37 degrees C and 5% CO2 with 95% humidity. The PDC lines were cultured according to standard operating procedures established by the NCI PDMR. All PDCs were thawed and cultured in Matrigel-coated flasks prepared with a working solution of 1X Ham's F-12 nutrient mix, without supplementation (Invitrogen, cat. 11765054), 100 U/mL penicillin-streptomycin (Invitrogen, cat. 15140122), and 2.5% Matrigel (Corning Inc., cat. 354248) for the first three passages. The 857933-349-R-J2-PDC line was cultured in 6C/Colon 1B media, which includes advanced DMEM/F-12 (Thermo Fisher Scientific, cat. 12634028), 10 mM HEPES (Thermo Fisher Scientific, cat. 15630080), 1X GlutaMAX supplement (Thermo Fisher Scientific, cat. 35050061), 0.1 mg/mL primocin (InvivoGen, cat. ant-pm-2), 10% defined fetal bovine serum, heat inactivated (HyClone Laboratories Inc., cat. SH30070.03HI), 50% L-WRN conditioned media (ATCC, cat. CRL-3276), 1.25 mM N-Acetyl-L-cysteine (Sigma-Aldrich, cat. A9165), 10 mM nicotinamide (Sigma-Aldrich, cat. N0636), 1X B-27 supplement (Thermo Fisher Scientific, cat. 17504044), 1X N-2 supplement (Thermo Fisher Scientific, cat. 17502048), 10 microM Y-27632 dihydrochloride (Tocris Bioscience, cat. 1254), and 50 ng/mL human EGF recombinant protein (Thermo Fisher Scientific, cat. PHG0311). The 485176-168-R4-J1-PDC line was cultured in Panc media, which includes all 6C/Colon 1B media components plus 100 ng/mL human FGF-10 (Thermo Fisher Scientific, cat. 100-26), 500 nM SB-431542 (Selleckchem, cat. S1067), and gastrin (Tocris, cat. 3006).
[…]
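Also: spheroids exposed to the agents for seven days before readout.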
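For viability, T/C in this document: percent viability relative to DMSO vehicle control wells = 100%.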

O=C(c1cc(Cc2n[nH]c(=O)c3ccccc23)ccc1F)N1CCN(C(=O)C2CC2)CC1 + Cc1cnc(CNC(=O)c2c(=O)c3ccc(N4CCCN(C)CC4)nc3n3c2sc2ccccc23)cn1
< 31.6 nM: IC50 (curve of first compound, second compound 10 µM)
inactive: viability, T/C (second compound 0.0316 µM, first compound 0.0316 µM) 99.3% | viability, T/C (second compound 0.0316 µM, first compound 0.1 µM) 92.8% | viability, T/C (second compound 0.0316 µM, first compound 0.316 µM) 94.1% | viability, T/C (second compound 0.0316 µM, first compound 1 µM) 83.4% | viability, T/C (second compound 0.0316 µM, first compound 3.16 µM) 87.2% | viability, T/C (second compound 0.0316 µM, first compound 10 µM) 81.5% | viability, T/C (second compound 0.1 µM, first compound 0.0316 µM) 102% | viability, T/C (second compound 0.1 µM, first compound 0.1 µM) 99.8% | viability, T/C (second compound 0.1 µM, first compound 0.316 µM) 89.7% | viability, T/C (second compound 0.1 µM, first compound 1 µM) 98.4% | viability, T/C (second compound 0.1 µM, first compound 3.16 µM) 117% | viability, T/C (second compound 0.1 µM, first compound 10 µM) 81.6% | viability, T/C (second compound 0.316 µM, first compound 0.0316 µM) 81.6% | viability, T/C (second compound 0.316 µM, first compound 0.1 µM) 97.2% | viability, T/C (second compound 0.316 µM, first compound 0.316 µM) 91.3% | viability, T/C (second compound 0.316 µM, first compound 1 µM) 102% | viability, T/C (second compound 0.316 µM, first compound 3.16 µM) 103% | viability, T/C (second compound 0.316 µM, first compound 10 µM) 73.9% | viability, T/C (second compound 1 µM, first compound 0.0316 µM) 78% | viability, T/C (second compound 1 µM, first compound 0.1 µM) 79.5% | viability, T/C (second compound 1 µM, first compound 0.316 µM) 82.7% | viability, T/C (second compound 1 µM, first compound 1 µM) 73.5% | viability, T/C (second compound 1 µM, first compound 3.16 µM) 75.6% | viability, T/C (second compound 1 µM, first compound 10 µM) 66% | viability, T/C (second compound 3.16 µM, first compound 0.0316 µM) 67.1% | viability, T/C (second compound 3.16 µM, first compound 0.1 µM) 91.5% | viability, T/C (second compound 3.16 µM, first compound 0.316 µM) 93.7% | viability, T/C (second compound 3.16 µM, first compound 1 µM) 78.8% | viability, T/C (second compound 3.16 µM, first compound 3.16 µM) 69.5% | viability, T/C (second compound 3.16 µM, first compound 10 µM) 67.9% | viability, T/C (second compound 10 µM, first compound 0.0316 µM) 0.42% | viability, T/C (second compound 10 µM, first compound 0.1 µM) 20.2% | viability, T/C (second compound 10 µM, first compound 0.316 µM) 52.3% | viability, T/C (second compound 10 µM, first compound 1 µM) 41.7% | viability, T/C (second compound 10 µM, first compound 3.16 µM) 0.43% | viability, T/C (second compound 10 µM, first compound 10 µM) 0.33%
> 10000 nM: IC50 (curve of first compound, second compound 0.0316 µM) | IC50 (curve of first compound, second compound 0.1 µM) | IC50 (curve of first compound, second compound 0.316 µM) | IC50 (curve of first compound, second compound 1 µM) | IC50 (curve of first compound, second compound 3.16 µM)

CCc1c2c(nc3ccc(O)cc13)-c1cc3c(c(=O)n1C2)COC(=O)[C@]3(O)CC
> 316 nM: IC50 (curve of compound)
inactive: viability, T/C (compound 0.000999 µM) 94.3% and 102% and 120% | viability, T/C (compound 0.00316 µM) 83.9% and 104% and 97.4% | viability, T/C (compound 0.00999 µM) 87.7% and 72.2% and 92.2% | viability, T/C (compound 0.0316 µM) 64.8% and 104% and 70.9% | viability, T/C (compound 0.0999 µM) 80% and 86.2% and 77.4% | viability, T/C (compound 0.316 µM) 89.8% and 84.2% and 73.6%

COc1cc(C2c3cc4c(cc3C(OC3OC5COC(C)OC5C(O)C3O)C3COC(=O)C23)OCO4)cc(OC)c1O (stereo not given)
inactive: viability, T/C (compound 0.0316 µM) 102% and 90.8% and 122% | viability, T/C (compound 0.1 µM) 91.4% and 97.2% and 87.9% | viability, T/C (compound 0.316 µM) 85.3% and 106% (2×) | viability, T/C (compound 1 µM) 97.1% and 91.9% and 92.2% | viability, T/C (compound 3.16 µM) 75.5% and 101% and 99% | viability, T/C (compound 10 µM) 94.6% and 84.8% and 92.6%
> 10000 nM: IC50 (curve of compound)

C=CCn1c(=O)c2cnc(Nc3ccc(N4CCN(C)CC4)cc3)nc2n1-c1cccc(C(C)(C)O)n1
1580 nM and 1570 nM and 1380 nM: IC50 (curve of compound)
inactive: viability, T/C (compound 0.0316 µM) 114% and 117% and 102% | viability, T/C (compound 0.1 µM) 98.4% and 92.5% and 100% | viability, T/C (compound 0.316 µM) 87.5% and 73% and 83.4% | viability, T/C (compound 1 µM) 60% and 62% and 52.8% | viability, T/C (compound 3.16 µM) 32.2% and 34% and 37.9% | viability, T/C (compound 10 µM) 36.5% and 32.4% and 20.3%

CC(C)(O)C1CCC(Nc2ccc3ncc(-c4cccc(C(F)(F)F)c4)n3n2)CC1 (stereo not given)
> 10000 nM: IC50 (curve of compound)
inactive: viability, T/C (compound 0.0316 µM) 108% and 89.2% and 122% | viability, T/C (compound 0.1 µM) 113% and 90% and 91.5% | viability, T/C (compound 0.316 µM) 91.8% and 99.5% and 99.2% | viability, T/C (compound 1 µM) 98% and 96.9% and 84.3% | viability, T/C (compound 3.16 µM) 95.5% and 102% and 70.9% | viability, T/C (compound 10 µM) 119% and 110% and 103%

CC1COCCN1c1cc(-c2ccnn2C)c2ccnc(-c3ccn[nH]3)c2n1 (stereo not given)
inactive: viability, T/C (compound 0.0316 µM) 91.4% and 103% and 81.2% | viability, T/C (compound 0.1 µM) 51.7% and 66.5% and 56.5% | viability, T/C (compound 0.316 µM) 36.6% and 36.5% and 32.7% | viability, T/C (compound 1 µM) 17.9% and 19.7% and 18.7% | viability, T/C (compound 3.16 µM) 22.7% and 13.6% and 13.7% | viability, T/C (compound 10 µM) 11.9% and 15.1% and 13.6%
122 nM and 186 nM and 137 nM: IC50 (curve of compound)

C#Cc1c(F)ccc2cc(O)cc(-c3ncc4c(N5CC6CCC(C5)N6)nc(OCC56CCCN5CC(F)C6)nc4c3F)c12 (stereo not given)
> 10000 nM: IC50 (curve of compound)
inactive: viability, T/C (compound 0.0316 µM) 117% and 84.2% and 84% | viability, T/C (compound 0.1 µM) 109% and 86.1% and 98.1% | viability, T/C (compound 0.316 µM) 90.8% and 85.1% and 95.8% | viability, T/C (compound 1 µM) 118% and 83.9% and 81% | viability, T/C (compound 3.16 µM) 86.5% and 93.7% and 84.6% | viability, T/C (compound 10 µM) 82.7% and 72.7% and 67.4%

Cc1cccc(N(C)C(=O)C2C(O)CCN2c2nc(C)cc(C(F)(F)F)c2C#N)c1 (stereo not given)
> 10000 nM: IC50 (curve of compound)
inactive: viability, T/C (compound 0.0316 µM) 96.8% and 97.5% and 104% | viability, T/C (compound 0.1 µM) 96.3% and 100% and 97.4% | viability, T/C (compound 0.316 µM) 99.6% and 98.6% and 93.5% | viability, T/C (compound 1 µM) 96.4% and 89.9% and 93.7% | viability, T/C (compound 3.16 µM) 103% and 83.6% and 97% | viability, T/C (compound 10 µM) 79.5% and 81.2% and 102%

O=C(c1cc(Cc2n[nH]c(=O)c3ccccc23)ccc1F)N1CCN(C(=O)C2CC2)CC1
inactive: viability, T/C (compound 0.0316 µM) 94.2% and 117% and 81.5% | viability, T/C (compound 0.1 µM) 111% and 86.5% and 85.5% | viability, T/C (compound 0.316 µM) 101% and 84.9% and 95.2% | viability, T/C (compound 1 µM) 115% and 101% and 91.1% | viability, T/C (compound 3.16 µM) 132% and 80.7% and 87.9% | viability, T/C (compound 10 µM) 97.2% and 71.2% and 88.4%
> 10000 nM: IC50 (curve of compound)

CC[C@@]1(O)C(=O)OCc2c1cc1n(c2=O)Cc2cc3c(CN(C)C)c(O)ccc3nc2-1
> 316 nM: IC50 (curve of compound)
inactive: viability, T/C (compound 0.000999 µM) 91.8% and 98.4% and 103% | viability, T/C (compound 0.00316 µM) 94% and 117% and 106% | viability, T/C (compound 0.00999 µM) 93.8% and 93.5% and 91.8% | viability, T/C (compound 0.0316 µM) 85.7% and 102% and 117% | viability, T/C (compound 0.0999 µM) 80.3% and 103% and 96.4% | viability, T/C (compound 0.316 µM) 97.9% and 88% and 91.1%
